Test results taken from patent publication US9636311B2, “N,N′-di-1 naphthylguanidine HCl (NAGH) and N,N′-di-p-nitrophenylguanidine HCl (NAD) treatment for stroke at delayed timepoints” (University of South Florida, priority 2012, dated 2017).

System: rats following MCAO
Assay: Iba1 immunostaining of microglia after MCAO
Type: in vivo, rat
Details: 30 days after stroke; p>0.05
Method: MCAO surgeries were performed as described elsewhere (Vendrame M, Cassady C J, Newcomb J, Butler T, Pennypacker K R, Zigova T, et al. Stroke. 2004; 35:2390-2395). Briefly, rats were anesthetized with isoflurane, and the right common carotid and external carotid arteries were exposed using blunt dissection techniques. The vagus nerve was separated from common carotid artery and the external carotid artery was ligated proximally, and transected near the bifurcation. An embolus 40 mm in length (4.0 siliconized monofilament) was inserted into the external carotid artery and fed distally into the origin of the middle cerebral artery (˜25 mm from insertion) through the internal carotid artery. Blood samples were taken and analyzed using an i-STAT handheld analyzer for hemoglobin, hematocrit, ionized calcium, glucose, sodium, potassium, pH, pCO2, HCO3, TCO2, base excess, pO2, and O2. Cerebral blood flow was recorded using a Laser Doppler Monitor (Moor Instruments) to verify occlusion. […]
Anti-Iba1 (1:500; Wako 019-19741) immunocytochemistry was used for the specific identification of microglia. […] Iba-1 positive cells were quantified (n=12) as previously detailed by Smirkin et al. (Smirkin, Matsumoto et al. 2010) with little modification. […] Total number of Iba-1 positive cells were counted manually by two observer using ImagePro plus software.

Cl.N=C(Nc1cccc2ccccc12)Nc1cccc2ccccc12 [NAGH, N,N′-di-1-Naphthylguanidine hydrochloride]
Activated microglia (Iba1 positive cells) in peri-infarct and ischemic core vs DMSO: not statistically significant
